Reference: ChEMBL document CHEMBL1201862, “PubChem BioAssay data set” (2004)
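How tested: cells in 96-well plates exposed to compound for 48 hours at five concentrations. GI50 marks 50% less growth.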 Activity calls are given as the source filed them. Rule as the data show it: active = GI50 up to about 1.1 µM and inactive = higher.

What was measured:
Test in all cases: NCI anticancer screen, dose series, 48 h
[1] = test system: OVCAR-5
[2] = test system: TK-10
[3] = test system: MDA-MB-231
[4] = test system: OVCAR-4
[5] = test system: NCI-H226
[6] = test system: SK-MEL-5
[7] = test system: HCC 2998
[8] = test system: MDA-N
[9] = test system: NCI-H23
[10] = test system: UACC-257
[11] = test system: SK-MEL-2
[12] = test system: SF-268
[13] = test system: SK-MEL-28
[14] = test system: HOP-62
[15] = test system: ACHN
[16] = test system: SW-620
[17] = test system: SF-539
[18] = test system: HOP-92
[19] = test system: UO-31
[20] = test system: NCI/ADR-RES

Compound	GI50 [1]	GI50 [2]	GI50 [3]	GI50 [4]	GI50 [5]	GI50 [6]	GI50 [7]	GI50 [8]	GI50 [9]	GI50 [10]	GI50 [11]	GI50 [12]	GI50 [13]	GI50 [14]	GI50 [15]	GI50 [16]	GI50 [17]	GI50 [18]	GI50 [19]	GI50 [20]
C=C(CN(CC)CC)C1(c2ccccc2)CC2(CCCC2)C(=O)O1 (stereo not given)	> 100 µM (inactive)	> 100 µM (inactive)	> 100 µM (inactive)	> 100 µM (inactive)	48 µM (inactive)	68.4 µM (inactive)	> 100 µM (inactive)	> 100 µM (inactive)	33 µM (inactive)	34.4 µM (inactive)	> 100 µM (inactive)	> 100 µM (inactive)	> 100 µM (inactive)	> 100 µM (inactive)	> 100 µM (inactive)	> 100 µM (inactive)	> 100 µM (inactive)	28.6 µM (inactive)	> 100 µM (inactive)	11.1 µM (inactive)
Nc1nccc(NCC2(CO)CC(CCc3ccccc3)C2)n1 (stereo not given)	14 µM (inactive)	12.5 µM (inactive)	16.6 µM (inactive)	20.7 µM (inactive)	16 µM (inactive)	4.06 µM (inactive)	19.5 µM (inactive)	14.9 µM (inactive)	12.2 µM (inactive)	14.3 µM (inactive)	14.5 µM (inactive)	> 10 µM (inactive)	16.8 µM (inactive)	18.2 µM (inactive)	13.9 µM (inactive)	18.3 µM (inactive)	15.8 µM (inactive)	4.93 µM (inactive)	12.5 µM (inactive)	14.2 µM (inactive)
COc1cc(N(Cc2ccc3oc(=O)c(-c4ccccc4)nc3c2)Cc2ccc3oc(=O)c(-c4ccccc4)nc3c2)cc(OC)c1OC	> 10 µM (inactive)	> 10 µM (inactive)	> 10 µM (inactive)	> 10 µM (inactive)	> 10 µM (inactive)	> 10 µM (inactive)	> 10 µM (inactive)	> 10 µM (inactive)	> 10 µM (inactive)	> 10 µM (inactive)	> 10 µM (inactive)	> 10 µM (inactive)	> 10 µM (inactive)	> 10 µM (inactive)	> 10 µM (inactive)	> 10 µM (inactive)	> 10 µM (inactive)	> 10 µM (inactive)	> 10 µM (inactive)	> 10 µM (inactive)
COc1cc2c3c(c1OC)-c1cc4c(cc1CC3(C#N)N(C(=O)c1ccccc1)CC2)OCO4 (stereo not given)	> 56.2 µM (inactive)	36 µM (inactive)	67.6 µM (inactive)	15.3 µM (inactive)	37.8 µM (inactive)	29.2 µM (inactive)	> 100 µM (inactive)	> 100 µM (inactive)	25.5 µM (inactive)	60.4 µM (inactive)	46.6 µM (inactive)	31.6 µM (inactive)	59.7 µM (inactive)	42.1 µM (inactive)	40.4 µM (inactive)	87.9 µM (inactive)	17.7 µM (inactive)	8.39 µM (inactive)	51.2 µM (inactive)	> 60 µM (inactive)
Cc1nc2cccc(F)c2c(=O)n1-c1nnc(C(F)(F)F)s1	> 10 µM (inactive)	> 10 µM (inactive)	> 10 µM (inactive)	> 10 µM (inactive)	> 10 µM (inactive)	> 10 µM (inactive)	> 10 µM (inactive)	> 10 µM (inactive)	> 10 µM (inactive)	> 10 µM (inactive)	> 10 µM (inactive)	> 10 µM (inactive)	> 10 µM (inactive)	> 10 µM (inactive)	> 10 µM (inactive)	> 10 µM (inactive)	> 10 µM (inactive)	> 10 µM (inactive)	> 10 µM (inactive)	> 10 µM (inactive)
CCCCCCCCCCCCCCCCNc1ccn(C2CC(O)C(COC(c3ccccc3)(c3ccccc3)c3ccc(OC)cc3)O2)c(=O)n1 (stereo not given)	> 100 µM (inactive)	> 100 µM (inactive)	> 100 µM (inactive)	> 100 µM (inactive)	> 100 µM (inactive)	> 100 µM (inactive)	83.6 µM (inactive)	> 100 µM (inactive)	> 100 µM (inactive)	> 10 µM (inactive)	> 100 µM (inactive)	> 100 µM (inactive)	> 100 µM (inactive)	> 100 µM (inactive)	> 100 µM (inactive)	> 100 µM (inactive)	> 100 µM (inactive)	> 100 µM (inactive)	20.9 µM (inactive)	> 100 µM (inactive)
Cc1cc(NS(=O)(=O)c2ccc(NC(=O)c3ccc4[nH]c5ccccc5c(=O)c4c3)cc2)no1	> 100 µM (inactive)	> 100 µM (inactive)	> 100 µM (inactive)	> 100 µM (inactive)	> 100 µM (inactive)	> 100 µM (inactive)	85.3 µM (inactive)	> 100 µM (inactive)	> 100 µM (inactive)	> 100 µM (inactive)	75.3 µM (inactive)	> 100 µM (inactive)	> 100 µM (inactive)	> 100 µM (inactive)	> 100 µM (inactive)	> 100 µM (inactive)	68.1 µM (inactive)	88.3 µM (inactive)	> 100 µM (inactive)	> 100 µM (inactive)
NC(=O)c1csc(C2(O)COC(CO)C2O)n1 (stereo not given)	> 100 µM (inactive)	> 100 µM (inactive)	> 100 µM (inactive)	> 100 µM (inactive)	> 100 µM (inactive)	> 100 µM (inactive)	> 100 µM (inactive)	> 100 µM (inactive)	> 100 µM (inactive)	> 100 µM (inactive)	> 100 µM (inactive)	> 100 µM (inactive)	> 100 µM (inactive)	> 100 µM (inactive)	> 100 µM (inactive)	> 100 µM (inactive)	> 100 µM (inactive)	> 100 µM (inactive)	> 100 µM (inactive)	> 100 µM (inactive)
COc1ccc(/C=c2/[nH]c(=O)/c(=C\c3ccc(OCc4ccccc4)cn3)[nH]c2=O)cc1	> 100 µM (inactive)	71.9 µM (inactive)	> 100 µM (inactive)	> 100 µM (inactive)	67.9 µM (inactive)	50.2 µM (inactive)	> 100 µM (inactive)	19.8 µM (inactive)	> 100 µM (inactive)	> 100 µM (inactive)	51.8 µM (inactive)	41.2 µM (inactive)	> 100 µM (inactive)	43 µM (inactive)	> 100 µM (inactive)	62.4 µM (inactive)	32.4 µM (inactive)	23.2 µM (inactive)	0.889 µM (active)	58.1 µM (inactive)
N/C(=N\O)N/N=C/c1cc(Br)cc(Br)c1O	9.86 µM (inactive)	5.35 µM (inactive)	4.6 µM (inactive)	4.23 µM (inactive)	1.29 µM (inactive)	6.89 µM (inactive)	6.53 µM (inactive)	10.8 µM (inactive)	7.06 µM (inactive)	14 µM (inactive)	8.04 µM (inactive)	1.75 µM (inactive)	8.73 µM (inactive)	4.21 µM (inactive)	1.95 µM (inactive)	8.95 µM (inactive)	4.49 µM (inactive)	2.86 µM (inactive)	1.92 µM (inactive)	1.08 µM (active)
O=C(O)c1cc2ccccc2c2c1C(=O)c1ccccc1-2	> 100 µM (inactive)	> 100 µM (inactive)	> 100 µM (inactive)	> 100 µM (inactive)	> 100 µM (inactive)	79.3 µM (inactive)	> 100 µM (inactive)	> 100 µM (inactive)	> 100 µM (inactive)	> 100 µM (inactive)	> 100 µM (inactive)	> 100 µM (inactive)	58.3 µM (inactive)	20.7 µM (inactive)	30.3 µM (inactive)	> 100 µM (inactive)	> 100 µM (inactive)	50.2 µM (inactive)	46 µM (inactive)	> 100 µM (inactive)
CCOC(=O)Cc1nc2c(O)ncnc2n1C1OC(COC(C)=O)C(OC(C)=O)C1OC(C)=O (stereo not given)	> 100 µM (inactive)	> 100 µM (inactive)	> 100 µM (inactive)	> 100 µM (inactive)	> 100 µM (inactive)	> 100 µM (inactive)	> 100 µM (inactive)	> 100 µM (inactive)	> 100 µM (inactive)	> 100 µM (inactive)	> 100 µM (inactive)	> 100 µM (inactive)	> 100 µM (inactive)	> 100 µM (inactive)	> 100 µM (inactive)	> 100 µM (inactive)	> 100 µM (inactive)	> 100 µM (inactive)	> 100 µM (inactive)	> 100 µM (inactive)
Cn1c(-c2cccs2)cc(-c2cccs2)c1-c1cccs1	> 100 µM (inactive)	> 100 µM (inactive)	98.9 µM (inactive)	39.1 µM (inactive)	> 100 µM (inactive)	14.5 µM (inactive)	37.8 µM (inactive)	55.2 µM (inactive)	13.6 µM (inactive)	16.5 µM (inactive)	44 µM (inactive)	> 81.8 µM (inactive)	> 100 µM (inactive)	> 100 µM (inactive)	75 µM (inactive)	> 100 µM (inactive)	> 100 µM (inactive)	> 100 µM (inactive)	> 96.4 µM (inactive)	> 100 µM (inactive)
OCCCCCNc1cc(O)nc(O)n1	> 100 µM (inactive)	> 100 µM (inactive)	> 100 µM (inactive)	> 100 µM (inactive)	> 100 µM (inactive)	> 100 µM (inactive)	> 100 µM (inactive)	> 100 µM (inactive)	> 100 µM (inactive)	> 100 µM (inactive)	> 100 µM (inactive)	> 100 µM (inactive)	> 100 µM (inactive)	> 100 µM (inactive)	> 100 µM (inactive)	> 100 µM (inactive)	> 100 µM (inactive)	> 100 µM (inactive)	> 100 µM (inactive)	> 100 µM (inactive)
